From PubChem BioAssay (NCI)
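In this assay, cells in 96-well plates receive the compound at five concentrations for 48 hours. Endpoints are linearly interpolated between the surrounding concentrations. TGI denotes the concentration required for complete inhibition of growth.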

Assays:
Assay in all cases: DTP human tumour cell line panel, 48 h
NCI-H23 lung = system: NCI-H23 lung
OVCAR-4 ovarian = system: OVCAR-4 ovarian
MDA-MB-435 = system: MDA-MB-435
OVCAR-8 ovarian = system: OVCAR-8 ovarian
MALME-3M melanoma = system: MALME-3M melanoma
LOX IMVI melanoma = system: LOX IMVI melanoma
M14 melanoma = system: M14 melanoma
SK-OV-3 ovarian = system: SK-OV-3 ovarian
IGROV1 ovarian = system: IGROV1 ovarian
HCT-15 colon = system: HCT-15 colon
T-47D breast = system: T-47D breast
HT29 colon = system: HT29 colon
HL-60(TB) leukemia = system: HL-60(TB) leukemia
NCI-H460 lung = system: NCI-H460 lung
BT-549 breast = system: BT-549 breast
CAKI-1 renal = system: CAKI-1 renal
UO-31 renal = system: UO-31 renal
EKVX NSCLC = system: EKVX NSCLC
CCRF-CEM leukemia = system: CCRF-CEM leukemia
786-0 renal = system: 786-0 renal

## CN(C)c1ccc(/C=N/c2nc3cc4sc(/N=C/c5ccc(N(C)C)cc5)nc4cc3s2)cc1
NCI-H23 lung
  TGI: > 100 µM
OVCAR-4 ovarian
  TGI: > 100 µM
MDA-MB-435
  TGI: > 100 µM
OVCAR-8 ovarian
  TGI: > 100 µM
MALME-3M melanoma
  TGI: > 100 µM
LOX IMVI melanoma
  TGI: > 100 µM
M14 melanoma
  TGI: > 100 µM
SK-OV-3 ovarian
  TGI: > 100 µM
IGROV1 ovarian
  TGI: > 100 µM
HCT-15 colon
  TGI: > 100 µM
T-47D breast
  TGI: > 100 µM
HT29 colon
  TGI: > 100 µM
HL-60(TB) leukemia
  TGI: > 100 µM
NCI-H460 lung
  TGI: > 100 µM
BT-549 breast
  TGI: > 100 µM
CAKI-1 renal
  TGI: > 100 µM
UO-31 renal
  TGI: > 100 µM
EKVX NSCLC
  TGI: > 100 µM
CCRF-CEM leukemia
  TGI: > 100 µM
786-0 renal
  TGI: > 100 µM

## O=S(=O)(O)c1ccc2c(N=Nc3ccc(S(=O)(=O)O)c4ccccc34)c(O)c(S(=O)(=O)O)cc2c1
NCI-H23 lung
  TGI: > 100 µM
OVCAR-4 ovarian
  TGI: > 100 µM
MDA-MB-435
  TGI: > 100 µM
OVCAR-8 ovarian
  TGI: > 100 µM
MALME-3M melanoma
  TGI: > 100 µM
LOX IMVI melanoma
  TGI: > 100 µM
M14 melanoma
  TGI: > 100 µM
SK-OV-3 ovarian
  TGI: > 100 µM
IGROV1 ovarian
  TGI: > 100 µM
HCT-15 colon
  TGI: > 100 µM
T-47D breast
  TGI: > 100 µM
HT29 colon
  TGI: > 100 µM
HL-60(TB) leukemia
  TGI: > 100 µM
NCI-H460 lung
  TGI: > 100 µM
BT-549 breast
  TGI: > 100 µM
CAKI-1 renal
  TGI: > 100 µM
UO-31 renal
  TGI: > 100 µM
EKVX NSCLC
  TGI: > 100 µM
CCRF-CEM leukemia
  TGI: > 100 µM
786-0 renal
  TGI: > 100 µM

## Cc1ccc(S(=O)(=O)N/N=C2\CCC3(O)CC2(C)CCC2C3CC2(C)C)cc1 (stereo not given)
NCI-H23 lung
  TGI: > 100 µM
OVCAR-4 ovarian
  TGI: > 100 µM
MDA-MB-435
  TGI: > 100 µM
OVCAR-8 ovarian
  TGI: > 100 µM
MALME-3M melanoma
  TGI: > 100 µM
LOX IMVI melanoma
  TGI: > 100 µM
M14 melanoma
  TGI: > 100 µM
SK-OV-3 ovarian
  TGI: > 100 µM
IGROV1 ovarian
  TGI: > 100 µM
HCT-15 colon
  TGI: > 100 µM
T-47D breast
  TGI: > 100 µM
HT29 colon
  TGI: > 100 µM
HL-60(TB) leukemia
  TGI: > 100 µM
NCI-H460 lung
  TGI: 46.7 µM
BT-549 breast
  TGI: > 100 µM
CAKI-1 renal
  TGI: > 100 µM
UO-31 renal
  TGI: 80.3 µM
EKVX NSCLC
  TGI: > 100 µM
CCRF-CEM leukemia
  TGI: > 100 µM
786-0 renal
  TGI: > 100 µM

## Cc1nc2cc3ccccc3cc2[nH]c1=O
NCI-H23 lung
  TGI: > 100 µM
OVCAR-4 ovarian
  TGI: > 100 µM
MDA-MB-435
  TGI: > 100 µM
OVCAR-8 ovarian
  TGI: > 100 µM
MALME-3M melanoma
  TGI: > 100 µM
LOX IMVI melanoma
  TGI: > 100 µM
M14 melanoma
  TGI: > 100 µM
SK-OV-3 ovarian
  TGI: > 100 µM
IGROV1 ovarian
  TGI: > 100 µM
HCT-15 colon
  TGI: > 100 µM
T-47D breast
  TGI: > 100 µM
HT29 colon
  TGI: > 100 µM
HL-60(TB) leukemia
  TGI: > 100 µM
NCI-H460 lung
  TGI: > 100 µM
BT-549 breast
  TGI: > 100 µM
CAKI-1 renal
  TGI: > 100 µM
UO-31 renal
  TGI: > 100 µM
EKVX NSCLC
  TGI: > 100 µM
CCRF-CEM leukemia
  TGI: > 100 µM
786-0 renal
  TGI: > 100 µM

## CN(C)C(=S)C(Cl)(c1ccccc1)c1ccccc1
NCI-H23 lung
  TGI: > 100 µM
OVCAR-4 ovarian
  TGI: > 100 µM
MDA-MB-435
  TGI: > 100 µM
OVCAR-8 ovarian
  TGI: > 100 µM
MALME-3M melanoma
  TGI: > 100 µM
LOX IMVI melanoma
  TGI: > 100 µM
M14 melanoma
  TGI: > 100 µM
SK-OV-3 ovarian
  TGI: > 100 µM
IGROV1 ovarian
  TGI: > 100 µM
HCT-15 colon
  TGI: > 100 µM
T-47D breast
  TGI: 61.7 µM
HT29 colon
  TGI: 77.3 µM
HL-60(TB) leukemia
  TGI: 71.6 µM
NCI-H460 lung
  TGI: > 100 µM
BT-549 breast
  TGI: > 100 µM
CAKI-1 renal
  TGI: > 100 µM
UO-31 renal
  TGI: > 100 µM
EKVX NSCLC
  TGI: 75 µM
CCRF-CEM leukemia
  TGI: > 100 µM
786-0 renal
  TGI: > 100 µM

## CCC1(CC)N=C(C(F)(F)F)c2cc(C(=O)C(F)(F)F)c3ccccc3c2N1
NCI-H23 lung
  TGI: 11.2 µM
OVCAR-4 ovarian
  TGI: > 100 µM
MDA-MB-435
  TGI: > 100 µM
OVCAR-8 ovarian
  TGI: > 100 µM
MALME-3M melanoma
  TGI: 57.3 µM
LOX IMVI melanoma
  TGI: 13.7 µM
M14 melanoma
  TGI: 25.3 µM
SK-OV-3 ovarian
  TGI: 49.7 µM
IGROV1 ovarian
  TGI: 23 µM
HCT-15 colon
  TGI: > 100 µM
T-47D breast
  TGI: 15.2 µM
HT29 colon
  TGI: 81.4 µM
HL-60(TB) leukemia
  TGI: 8.25 µM
NCI-H460 lung
  TGI: 24.1 µM
BT-549 breast
  TGI: 29 µM
CAKI-1 renal
  TGI: > 100 µM
UO-31 renal
  TGI: 16.9 µM
EKVX NSCLC
  TGI: 64.2 µM
CCRF-CEM leukemia
  TGI: 31.1 µM
786-0 renal
  TGI: 13.7 µM

## CCOC(=O)CCC(NC(=O)c1ccc(Oc2nc3c(N)cc(C(F)(F)F)cc3nc2-c2ccccc2)cc1)C(=O)OCC (stereo not given)
NCI-H23 lung
  TGI: > 59.3 µM
OVCAR-4 ovarian
  TGI: > 100 µM
MDA-MB-435
  TGI: > 100 µM
OVCAR-8 ovarian
  TGI: > 80.7 µM
MALME-3M melanoma
  TGI: 91.9 µM
LOX IMVI melanoma
  TGI: > 100 µM
M14 melanoma
  TGI: > 100 µM
SK-OV-3 ovarian
  TGI: > 58.6 µM
IGROV1 ovarian
  TGI: > 100 µM
HCT-15 colon
  TGI: > 100 µM
T-47D breast
  TGI: > 100 µM
HT29 colon
  TGI: > 100 µM
HL-60(TB) leukemia
  TGI: > 100 µM
NCI-H460 lung
  TGI: > 100 µM
BT-549 breast
  TGI: > 95 µM
CAKI-1 renal
  TGI: 8.91 µM
UO-31 renal
  TGI: > 100 µM
EKVX NSCLC
  TGI: > 100 µM
CCRF-CEM leukemia
  TGI: > 100 µM
786-0 renal
  TGI: > 22 µM

## CC/C(Cl)=N\OC(=O)Nc1ccc(OC)c(C)c1
NCI-H23 lung
  TGI: 36.5 µM
OVCAR-4 ovarian
  TGI: 36.5 µM
MDA-MB-435
  TGI: > 100 µM
OVCAR-8 ovarian
  TGI: 39.2 µM
MALME-3M melanoma
  TGI: 26.6 µM
LOX IMVI melanoma
  TGI: 31.1 µM
M14 melanoma
  TGI: 44.1 µM
SK-OV-3 ovarian
  TGI: > 100 µM
IGROV1 ovarian
  TGI: 39.1 µM
HCT-15 colon
  TGI: 34.5 µM
T-47D breast
  TGI: 39.1 µM
HT29 colon
  TGI: 41.2 µM
HL-60(TB) leukemia
  TGI: > 44.5 µM
NCI-H460 lung
  TGI: > 100 µM
BT-549 breast
  TGI: 34.9 µM
CAKI-1 renal
  TGI: 1.84 µM
UO-31 renal
  TGI: 35.5 µM
EKVX NSCLC
  TGI: 10.1 µM
CCRF-CEM leukemia
  TGI: > 38.8 µM
786-0 renal
  TGI: 36.8 µM

## CCS(=O)c1c2cc(OC)ccc2nc2ccc(OC)cc12 (stereo not given)
NCI-H23 lung
  TGI: 19.9 µM
OVCAR-4 ovarian
  TGI: 36.1 µM
MDA-MB-435
  TGI: 26.4 µM
OVCAR-8 ovarian
  TGI: 15.5 µM
MALME-3M melanoma
  TGI: 12.6 µM
LOX IMVI melanoma
  TGI: > 100 µM
M14 melanoma
  TGI: 37.6 µM
SK-OV-3 ovarian
  TGI: 47.5 µM
IGROV1 ovarian
  TGI: 10 µM
HCT-15 colon
  TGI: > 52.5 µM
T-47D breast
  TGI: 5.85 µM
HT29 colon
  TGI: 10 µM
HL-60(TB) leukemia
  TGI: > 100 µM
NCI-H460 lung
  TGI: > 68 µM
BT-549 breast
  TGI: 31.9 µM
CAKI-1 renal
  TGI: 9.44 µM
UO-31 renal
  TGI: 13.1 µM
EKVX NSCLC
  TGI: 32.3 µM
CCRF-CEM leukemia
  TGI: > 25.6 µM
786-0 renal
  TGI: 6.42 µM
